Entries after “also recorded” stand apart in the source; their conditions may differ.
Legend:
calcitonin = molecular target: T1, calcitonin (Homo sapiens, UniProt P01258); experiment: Fibrillogenesis of calcitonin (ThT fluorescence and EM); assay type: biochemical; conditions: 1:10 or 1:20 concentration ratio
T1 sequence (P01258 85-116 limits assumed): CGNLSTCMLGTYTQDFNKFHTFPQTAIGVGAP

Aβ42 [1] = molecular target: T2, Aβ42 (Homo sapiens, UniProt P05067); experiment: Quiescent Aβ42 fibril formation measured by electron microscopy (EM); assay type: biochemical; design: C) 30 μM Aβ42; conditions: 25 μM Aβ42 + 20 μM TW1, days 3, 5, 10
Protocol: 8 μL of each solution were applied to glow-discharged, carbon-coated Formvar grids and incubated for 20 min. The samples were fixed by incubating with 5 μL of 2.5% glutaraldehyde for 5 min, and stained with 5 μL of 1% uranyl acetate for 5 min. The stained samples were examined using a JEOL CX100 electron microscope. A-C) 25 μM Aβ42. […] A, D) day 3. B, E) day 5. C, F) day 10.
5. TW1 attenuates Aβ fibril formation as measured by electron microscopy (EM).

[2] = molecular target: T3, islet amyloid polypeptide (IAPP) (Homo sapiens, UniProt P10997); experiment: Fibrillogenesis of islet amyloid polypeptide (ThT fluorescence and EM); assay type: biochemical; conditions: 1:10 or 1:20 concentration ratio
T3 sequence (P10997 34-70 limits assumed): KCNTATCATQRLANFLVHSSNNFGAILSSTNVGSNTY

[3] = system: Aβ40-induced toxicity in differentiated PC-12 cells; experiment: Aβ40-induced toxicity, MTT assay in differentiated PC-12 cells; assay type: cell-based
Protocol: (§1) Freshly prepared 10 μM Aβ40 or Aβ42 were mixed with each of the three tweezers derivatives and added to differentiated PC-12 cells. Cell viability relative to media control was measured using the MTT assay.
(§2) 7. […] Based on the capability of the tweezers to inhibit Aβ aggregation, disaggregate pre-formed Aβ fibrils, and stabilize putatively non-toxic Aβ oligomers, we predicted that they should inhibit Aβ-induced toxicity. […] Next, we evaluated the dose-dependence of the effect of each of the three tweezers derivatives on Aβ40 and Aβ42 using the same cell culture system. Aβ42 was used at 10 μM as in the previous experiment, whereas the less neurotoxic Aβ40 was used at 25 μM. […] PC-12 cells were differentiated for 48 hours prior to the start of the assay. […] Based on the data extant, prediction of inhibitory activity based on tweezers structure alone is impossible. Thus, using molecular tweezers as inhibitors of Aβ toxicity is by no means trivial.

insulin = insulin (Homo sapiens, UniProt P01308); experiment: Fibrillogenesis of insulin (ThT fluorescence and EM); assay type: biochemical; conditions: 1:10 or 1:20 concentration ratio
Aβ42 [4] = molecular target: T2, Aβ42; experiment: Quiescent Aβ42 β-sheet formation measured by thioflavin T (ThT) fluorescence; conditions: 25 μM Aβ42, 20 μM tweezers, substoichiometric
[5] = system: Aβ42-induced toxicity in differentiated PC-12 cells; experiment: Aβ42-induced toxicity, MTT assay in differentiated PC-12 cells; assay type: cell-based
Protocol: (§3) Cell viability relative to media control was measured using the MTT assay.
as §1, §2

Aβ40 [6] = molecular target: T4, Aβ40 (Homo sapiens, UniProt P05067); assay type: binding; design: A) 25 μM Aβ40; conditions: 1:1 Aβ40:TW1 concentration ratio
β2-microglobulin (β2m) = β2-microglobulin (β2m) (Homo sapiens, UniProt P61769); experiment: Fibrillogenesis of β2-microglobulin (ThT fluorescence and EM); assay type: biochemical; conditions: 1:10 or 1:20 concentration ratio
[7] = system: rat primary hippocampal neurons; experiment: Aβ42-induced decrease in dendritic spine density; assay type: cell-based
Protocol: Neurons were visualized by staining F-actin with phalloidin (red) and nuclei were stained with DAPI (blue). A) Untreated cells show abundant dendritic spines (rough appearance). B and C) Show duplicate fields from the same experiment. Cells incubated with 500 nM Aβ42 oligomers show essential absence of spines (smooth neurites).
(§4) 8. […] An early neurotoxic event induced by Aβ oligomers and believed to be a predominant pathologic mechanism causing amnestic mild cognitive impairment (MCIa) and early AD^(1) is disruption of synapse morphology and communication (Shankar et al. (2007) J. Neurosci. 27: 2866-2875). […] Aβ42 oligomers caused essentially complete depletion of dendritic spines (FIG. 14, panels B, C) compared to control (FIG. 14, panel A). […] This effect endured after the 15-min washing period.

Aβ42 [8] = molecular target: T2, Aβ42; experiment: β-sheet formation by Aβ42 under agitation (shaking); assay type: biochemical; design: C) 30 μM Aβ42; conditions: 10 μM Aβ42; 1:10 Aβ:tweezers concentration ratio; shaken at 200 rpm
Protocol: Aβ42 was used at 10 μM. […] The samples were shaken at 200 rpm.

Aβ42 [9] = molecular target: T2, Aβ42; experiment: Aβ42 aggregation measured by dynamic light scattering (DLS); assay type: biochemical; design: C) 30 μM Aβ42
[10] = system: differentiated PC-12 cells; experiment: Effect of tweezers alone on cell viability, MTT assay; assay type: cell-based; conditions: 50 μM TW1
Protocol: as §3, §1, §2

Aβ40 [11] = molecular target: T4, Aβ40; conditions: 20 μM Aβ40, 10-fold excess TW1; for over a month
[12] = system: primary mouse hippocampal neurons; experiment: Aβ42-mediated inhibition of miniature excitatory postsynaptic currents (mEPSCs); assay type: cell-based; conditions: 3 μM Aβ42, 1:10 Aβ42:TW1
Protocol: Cells were perfused with vehicle for 5 min to establish baseline, and then with peptide or peptide:tweezers solutions for additional 20 minutes, and allowed to recover in vehicle solution for 15 minutes.
as §4

T2 sequence (P05067 672-713 limits assumed): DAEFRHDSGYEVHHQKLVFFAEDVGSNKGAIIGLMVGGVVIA
T4 sequence (P05067 672-711 limits assumed): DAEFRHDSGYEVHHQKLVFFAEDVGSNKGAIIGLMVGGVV
Chain of insulin (P01308 25-54 limits assumed, species assumed): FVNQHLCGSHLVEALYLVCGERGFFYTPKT
Chain of insulin (P01308 90-110 partner limits assumed, species assumed): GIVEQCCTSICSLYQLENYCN
Chain of β2-microglobulin (β2m) (P61769 21-119): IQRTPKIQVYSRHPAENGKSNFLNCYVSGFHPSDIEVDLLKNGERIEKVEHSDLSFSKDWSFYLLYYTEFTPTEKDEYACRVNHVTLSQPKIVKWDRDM

## O=P(O)(O)Oc1c2c(c(OP(=O)(O)O)c3c1C1C[C@H]3c3cc4c(cc31)C1C[C@H]4c3ccccc31)[C@@H]1CC2c2cc3c(cc21)[C@@H]1CC3c2ccccc21 [TW1]
calcitonin
  inhibition of calcitonin fibrillogenesis: inhibited the fibrillogenesis; also recorded: inhibited the aggregation
Aβ42 [1]
  conversion of Aβ42 to typical amyloid fibrils (EM): delayed substantially
[2]
  inhibition of IAPP fibrillogenesis: inhibited the fibrillogenesis; also recorded: inhibited the aggregation
[3]; Rattus norvegicus, PC-12, 48 h, read-out: IC50, inhibition of Aβ40-induced toxicity
  IC50: 7 µM
[3]; tweezers 0.1-100 μM, dose-dependence experiment
  inhibition of Aβ40-induced toxicity (in words): inhibit Aβ-induced toxicity dose-dependently
insulin
  inhibition of insulin fibrillogenesis: inhibited the fibrillogenesis; also recorded: inhibited the aggregation
Aβ42 [4]
  inhibition of β-sheet formation by Aβ42 (ThT): inhibit β-sheet formation
[5]; 10 μM Aβ42, tweezers 0.1-100 μM, dose-dependence experiment
  inhibition of Aβ42-induced toxicity (in words): inhibit Aβ-induced toxicity dose-dependently
[5]; Rattus norvegicus, 10 μM Aβ42, tweezers 0.1-100 μM, PC-12 differentiated 48 hours, read-out: IC50, inhibition of Aβ42-induced toxicity
  IC50: 60 µM
[5]; from IC50 values
  times more TW1 required to inhibit Aβ42 than Aβ40 toxicity: 9-10 times
Aβ40 [6]
  binding site of TW1 in the 1:1 complex (ECD): within the Aβ(14-23) region, most likely at Lys16; also recorded: Lys16
β2-microglobulin (β2m)
  inhibition of β2m fibrillogenesis: inhibited the fibrillogenesis; also recorded: inhibited the aggregation
[7]; 500 nM Aβ42 oligomerized in presence of 250 nM TW1, 48 h
  rescue of Aβ42-induced depletion of dendritic spines, TW1 present during oligomer preparation: rescued this toxic effect to baseline level; also recorded: essentially complete rescue
[7]; 500 nM pre-formed Aβ42 oligomers, 5 μM TW1 (10-fold excess), 48 h
  rescue of dendritic spines, TW1 added with pre-formed Aβ42 oligomers: moderate rescue effect
[7]; 5 μM TW1
  effect of TW1 alone on dendritic spine morphology: no effect
Aβ42 [8]
  inhibition of β-sheet formation by Aβ42 under agitation: efficient inhibition; also recorded: completely inhibited
Aβ42 [9]; 20 μM Aβ42, 10-fold excess TW1, for over a month
  Aβ42 particle growth (DLS): no particle growth was observed
Aβ42 [9]; 1:1 concentration ratio
  Aβ42 particle growth (DLS): substantially delayed or not observed at all
[10]
  toxicity of tweezers alone (in words): nontoxic
Aβ40 [11]
  Aβ40 particle growth (DLS): no particle growth was observed
[12]
  rescue of Aβ42-induced reduction of mEPSC frequency: rescued to baseline level; also recorded: rescues the toxic effect of Aβ42 to baseline level

From US8791092B2 (priority 2009, dated 2014)
